{"source": "patent US20030012732A1", "about": "“Feeding assay for identifying nematicidal compounds” (priority 1999, published 2003)", "key": {"C. elegans [1]": {"tested_on": "C. elegans", "assay": "Feeding assay: ingestion of fluorescent microsphere beads (pharyngeal pumping), read by fluorimetry / fluorescence microscopy", "assay_type": "in vivo, C. elegans of the Bristol N2 strain", "protocol": "1. C. elegans of the Bristol N2 strain (Brenner, S. 1974. The genetics of Caenorhabditis elegans. Genetics 77: 71-94) were cultured at room temperature on HMS174 E. coli bacteria (Campbell, J. L., Richardson, C., and Studier, F. W. 1978. Genetic recombination and complementation between bacteriophage T7 and cloned fragments of T7 DNA. Proc. Natl. Acad. Sci. USA. 75: 2276-2280) spread on a 150 mm diameter petri dish containing enhanced NGM 3% (w/v) (Avery, L., and Horvitz, H. R. 1990. Effects of starvation and neuroactive drugs on feeding in Caenorhabditis elegans. J. Exp. Zool. 253: 263-270) agar until a good population of adult nematodes was present, but food reserves had not been exhausted. (Nematodes may be mass cultured in suspension if required).\n2. The nematodes were collected by washing with 10 mL and then 5 mL of […] and filtering over a 20 μm nylon mesh (Nytal—Catalogue no. BCNY-HD002-20) to retain adult nematodes.\n3. Adult nematodes were collected from the mesh using a pasteur pipette and allowed to settle in an eppendorf tube at 1 g for 10 minutes. This packed volume was used to calculate quantities of nematodes for experiments and assays, although nematodes were resuspended in 2-10 volumes of M9 buffer for transfer. Quantitative transfers of nematodes were performed using a Gilson Pipetman P200 or equivalent and a yellow tip with 5 mm cut off the sharp end.\n4. 96-well mesh-bottomed plates were blocked prior to performing the assay in order to minimise non-specific adherence of fluorescent microsphere beads. To block, 200 μL of a 0.1% (w/v) suspension of dark blue-dyed, non-fluorescent microsphere beads with a mean diameter of 0.95 μm and a hydrophilic surface coating (Catalogue code DC03B, carboxylate-modified polystyrene/polyvinyl copolymer) (manufactured and supplied by Bangs Laboratories, Inc. 9025 Technology Drive. Fishers, Ind. 46038-2886, USA) were added to the plate and incubated overnight at room temperature with orbital shaking at 70 r.p.m. Prior to the assay, the bead suspension was removed under vacuum using a Millipore Multiscreen manifold. The plate was washed three times by pipetting 200 μL of M9 buffer into each well, allowing the plate to sit for 5 minutes and then sucking off the suspension.\n5. The assay was either set up in the wells of a solid-bottomed 24-well plate using a final assay volume in the range of 0.5 to 1.0 mL or it was set up in the wells of a 96-well mesh bottomed plate (Millipore Multiscreen N20 plates, custom order no. SE3R090M6). In the latter case, the final assay volume was always 100 μL. The assay buffer in all cases was M9. The added volume of a stock of M9 and the added volume of double-distilled water were adjusted so as to achieve a final concentration of 1×M9 in the desired assay volume. A sufficient volume of a suspension of nematodes was added to the assay wells to give a final percentage in the range of 2.5% to 15% (v/v) depending on the experiment. A stock solution of the drug or test compound (e.g. serotonin) was added to the wells of the plate to give the desired final concentration. A sufficient volume of a suspension of fluorescent microsphere beads in double-distilled water was added to give a final concentration in the range of 0.025% to 0.1% (w/v) depending on the experiment.\n6. The fluorescent beads were 1.30 μm uniformly dyed microsphere beads with a hydrophilic surface-coating. The fluorescence excitation maximum was 420 nm and the emission maximum was 485 nm (catalogue code FC04F, carboxylate-modified polystyrene/polyvinyl copolymer, manufactured and supplied by Bangs Laboratories, Inc. 9025 Technology Drive, Fishers, Ind. 46038-2886, USA).\n7. The assay plate was placed on an orbital shaker at 70 r.p.m. at room temperature and incubated for up to 180 minutes (normally 60 minutes), under subdued illumination.\n8. At the end of the incubation 20 μL of 100 mM sodium azide was added to the wells of the 96-well mesh plate. […]"}, "C. elegans [2]": {"tested_on": "C. elegans", "assay": "Videotaping nematodes under Nomarski interference microscopy (pharyngeal pumping rate)", "assay_type": "in vivo", "settings": "at the doses of FIG. 3, separate experiments (not shown)"}}, "data": [{"smiles": "NCCc1c[nH]c2ccc(O)cc12", "note": "[serotonin]", "values": [{"measurement": "effect of high concentration on signal (bead ingestion)", "setting": "C. elegans [1]; 5 mM serotonin, 60 minutes, FIG. 3", "value": "suboptimal"}, {"measurement": "signal over control", "setting": "C. elegans [1]; 10 μL packed volume of adult nematodes (1,600-1,800 nematodes), two hour incubation, gain setting of 30", "value": "6246 arbitrary fluorescence intensity units"}, {"measurement": "microsphere beads contained in strongly labelled nematodes", "setting": "C. elegans [1]; estimated, high magnification examination", "value": "at least several hundred microsphere beads"}, {"measurement": "effect on microsphere bead ingestion when present during the incubation", "setting": "C. elegans [1]; in vivo", "value": "increased microsphere bead ingestion"}, {"measurement": "average number of microsphere beads ingested by nematodes more than a control nematode", "setting": "C. elegans [1]; later experiments, optimised conditions", "value": "≤ 2,400 microsphere beads"}, {"measurement": "signal strength over control relative to the earlier experiment", "setting": "C. elegans [1]; later experiments, optimised conditions, same volume of nematodes", "value": "approximately 6 times greater"}, {"measurement": "treated nematodes that had ingested one or more microsphere beads", "setting": "C. elegans [1]; other experiments under similar conditions to FIG. 1, high magnification examination", "value": "approximately 80%"}, {"measurement": "microsphere beads ingested on average per serotonin-treated nematode more than a control nematode", "setting": "C. elegans [1]; same experiment, two hour incubation", "value": 417, "unit": "microsphere beads"}, {"measurement": "effect on pharyngeal pumping rate", "setting": "C. elegans [2]", "value": "directly affects pharyngeal pumping rate"}]}]}
